Reference: PubChem BioAssay AID1996
Converted amounts (≈) assume the structure as drawn.

Conditions: buffer; pH 7.4; 200.0 µM

**Q.** With O=C(/C=C/c1ccco1)NCC1OCCc2ccccc21 (stereo not given) as the compound, how does the solubility kinetic read?
**A.** The solubility kinetic was 0.0415 mg/mL (≈ 146 µM).

**Q.** Which solubility kinetic does the source give for Cn1cc(C(=O)NCCO)c(=O)c2ccccc21 here?
**A.** Its solubility kinetic is > 0.0369 mg/mL.

**Q.** Which solubility kinetic does the source give for O=C(NCCNC(=O)c1ccccc1F)c1ccccn1 here?
**A.** The solubility kinetic was > 0.0431 mg/mL.

**Q.** Which solubility kinetic does the source give for COc1ccc(C(C)=O)cc1COC(=O)[C@H](Cc1ccccc1)NC(=O)c1ccco1 here?
**A.** The solubility kinetic was 0.008 mg/mL (≈ 19 µM).

**Q.** Which solubility kinetic does the source give for CCNc1nc(SCC(N)=O)nc2sc3c(c12)CCN(C)C3 here?
**A.** The solubility kinetic was > 0.0506 mg/mL.

**Q.** With COC(=O)CC(c1ccc(C(C)C)cc1)n1cccc1 (stereo not given) as the compound, how does the solubility kinetic read?
**A.** The solubility kinetic was 0.0025 mg/mL (≈ 9.21 µM).

**Q.** For O=C(O)c1ccccc1S(=O)(=O)CC(=O)N1CCCCC1, which solubility kinetic is on record?
**A.** Its solubility kinetic is > 0.0467 mg/mL.

**Q.** For COCCNC(=O)c1cccc2c1-c1ccccc1C2=O, which solubility kinetic is on record?
**A.** Its solubility kinetic is > 0.0422 mg/mL.

**Q.** For O=C(CCc1ccc(S(=O)(=O)N2CCOCC2)cc1)Nc1ccccc1F, which solubility kinetic is on record?
**A.** The solubility kinetic was > 0.0589 mg/mL.

**Q.** Which solubility kinetic does the source give for CCOc1ccccc1NS(=O)(=O)c1ccc2[nH]c(=O)ccc2c1 here?
**A.** The solubility kinetic was 0.0483 mg/mL (≈ 140 µM).

**Q.** For CCOC(=O)N1CCN(Cc2nc3cc([N+](=O)[O-])ccc3n2C)CC1, which solubility kinetic is on record?
**A.** Its solubility kinetic is 0.0507 mg/mL (≈ 146 µM).

**Q.** Which solubility kinetic does the source give for O=C(CSc1nc2ccccc2c(=O)n1CCCN1CCOCC1)Nc1ccc(F)c(Cl)c1 here?
**A.** The solubility kinetic was 0.0185 mg/mL (≈ 37.7 µM).

**Q.** Which solubility kinetic does the source give for CCN(CC)S(=O)(=O)c1cccc(-c2cn3cccnc3n2)c1 here?
**A.** The solubility kinetic was 0.0111 mg/mL (≈ 33.6 µM).

**Q.** Which solubility kinetic does the source give for Cc1cccc(OCCn2cnc(Cl)c2Cl)c1 here?
**A.** The solubility kinetic was 0.0277 mg/mL (≈ 102 µM).

**Q.** For COc1cc(OC)cc(C(=O)N[C@H](C(=O)OCC(=O)Nc2ccc3c(c2)OCO3)C(C)C)c1, which solubility kinetic is on record?
**A.** The solubility kinetic was 0.0212 mg/mL (≈ 46.2 µM).

**Q.** With Cn1c(=O)n(C)c2cc(NS(=O)(=O)c3ccccc3)ccc21 as the compound, how does the solubility kinetic read?
**A.** Its solubility kinetic is 0.0355 mg/mL (≈ 112 µM).

**Q.** With Cc1ccc(C)c(-c2csc(-c3cccnc3)n2)c1 as the compound, how does the solubility kinetic read?
**A.** Its solubility kinetic is 0.0099 mg/mL (≈ 37.2 µM).

**Q.** Which solubility kinetic does the source give for CN(c1ccc([N+](=O)[O-])cc1C(N)=O)C1CCCCC1 here?
**A.** Its solubility kinetic is 0.0383 mg/mL (≈ 138 µM).

**Q.** Which solubility kinetic does the source give for Cc1ccsc1/C=C1\SC(=S)N(CC2CCCO2)C1=O (stereo not given) here?
**A.** The solubility kinetic was < 0.0007 mg/mL.

**Q.** With Cc1ccc(NC(=O)CNC(=O)c2cccc(C)c2)nc1 as the compound, how does the solubility kinetic read?
**A.** Its solubility kinetic is > 0.0425 mg/mL.

**Q.** With Cc1ccc2sc(NC(=O)C3CC3)nc2c1C as the compound, how does the solubility kinetic read?
**A.** The solubility kinetic was 0.0013 mg/mL (≈ 5.28 µM).

**Q.** With CC(C)(C)NCC(O)COc1cccc2c1C[C@H](O)[C@H](O)C2 (stereo not given in full) as the compound, how does the solubility kinetic read?
**A.** The solubility kinetic was > 0.0464 mg/mL.

**Q.** With CCOC(=O)C1=Nc2ccccc2/C1=C\c1c(O)n(C)c(=O)n(C)c1=O as the compound, how does the solubility kinetic read?
**A.** Its solubility kinetic is 0.0465 mg/mL (≈ 131 µM).

**Q.** With CCOP(=O)(OCC)C(Nc1ccc(C)cc1)c1ccco1 (stereo not given) as the compound, how does the solubility kinetic read?
**A.** The solubility kinetic was 0.0463 mg/mL (≈ 143 µM).

**Q.** Which solubility kinetic does the source give for O=C(Nc1sc2c(c1C(=O)O)CCCC2)c1ccccc1Cl here?
**A.** Its solubility kinetic is > 0.0504 mg/mL.

**Q.** Which solubility kinetic does the source give for COC(=O)CNC(=O)COC(=O)/C=C/c1cccs1 here?
**A.** The solubility kinetic was > 0.0425 mg/mL.

**Q.** Which solubility kinetic does the source give for O=C(O)c1ccc2c(c1)CCCN2 here?
**A.** Its solubility kinetic is > 0.0266 mg/mL.

**Q.** With CC(C)(C)c1ccc(C(=O)NCCc2ccccc2)cc1 as the compound, how does the solubility kinetic read?
**A.** The solubility kinetic was 0.0008 mg/mL (≈ 2.84 µM).

**Q.** For COc1ccc(NC(=O)CNc2ccccc2C(C)=O)cc1S(=O)(=O)N1CCOCC1, which solubility kinetic is on record?
**A.** The solubility kinetic was 0.0639 mg/mL (≈ 143 µM).

**Q.** For Cc1ccsc1C(=O)OCC(=O)NC1CCS(=O)(=O)C1 (stereo not given), which solubility kinetic is on record?
**A.** The solubility kinetic was > 0.0476 mg/mL.

**Q.** Which solubility kinetic does the source give for COC(=O)c1ccccc1NC(=O)CSc1nncn1C here?
**A.** The solubility kinetic was > 0.046 mg/mL.

**Q.** For COc1ccc(C(=O)NC(=S)SCC(=O)O)cc1, which solubility kinetic is on record?
**A.** Its solubility kinetic is > 0.0428 mg/mL.

**Q.** Which solubility kinetic does the source give for CN1CC(C(=O)c2ccc(Cl)cc2)C(c2ccccc2)C1 (stereo not given) here?
**A.** The solubility kinetic was 0.0401 mg/mL (≈ 134 µM).

**Q.** For CC12CN(C(=O)c3cccc([N+](=O)[O-])c3)C3(C#N)CC1CCC23C (stereo not given), which solubility kinetic is on record?
**A.** Its solubility kinetic is 0.0453 mg/mL (≈ 139 µM).

**Q.** For O=[N+]([O-])CC(c1ccccc1)P(=O)(c1ccccc1)c1ccccc1 (stereo not given), which solubility kinetic is on record?
**A.** Its solubility kinetic is 0.0091 mg/mL (≈ 25.9 µM).

**Q.** For CC(=O)c1ccc(S(=O)(=O)N2CCC(C(=O)Nc3ncc(C)s3)CC2)cc1, which solubility kinetic is on record?
**A.** Its solubility kinetic is 0.003 mg/mL (≈ 7.36 µM).

**Q.** With COc1ccc(S(=O)(=O)N2CC(C)N(C(=O)N(C)C)C2C)cc1 (stereo not given) as the compound, how does the solubility kinetic read?
**A.** The solubility kinetic was > 0.0512 mg/mL.

**Q.** With Cn1c(NC2CCCCC2)cc(=O)n(C)c1=O as the compound, how does the solubility kinetic read?
**A.** The solubility kinetic was > 0.0356 mg/mL.

**Q.** With O=C(Nc1ccc(N2CCN(C(=O)c3cccs3)CC2)cc1)c1ccco1 as the compound, how does the solubility kinetic read?
**A.** The solubility kinetic was 0.0016 mg/mL (≈ 4.19 µM).

**Q.** For Cc1cc(=O)c2c([nH]1)c(C)cc1[nH]c(C)c(C)c12, which solubility kinetic is on record?
**A.** Its solubility kinetic is > 0.036 mg/mL.

**Q.** With COC(=O)c1nc[nH]c1C(=O)OC as the compound, how does the solubility kinetic read?
**A.** Its solubility kinetic is > 0.0276 mg/mL.

**Q.** With CC(C)Cc1csc(NC(=O)C(C)C)c1C(=O)O as the compound, how does the solubility kinetic read?
**A.** The solubility kinetic was > 0.0404 mg/mL.

**Q.** Which solubility kinetic does the source give for Cc1cccc(Oc2nc(-c3ccccn3)nc3ccccc23)c1 here?
**A.** The solubility kinetic was 0.0276 mg/mL (≈ 88.1 µM).

**Q.** With CC1CC(=O)N(c2ccc(C(C)C)cc2)C(=O)C1 as the compound, how does the solubility kinetic read?
**A.** The solubility kinetic was 0.035 mg/mL (≈ 143 µM).

**Q.** Which solubility kinetic does the source give for O=C(CNS(=O)(=O)c1cccs1)NCc1ccc(F)cc1 here?
**A.** Its solubility kinetic is > 0.0493 mg/mL.

**Q.** For CC(C)Cn1cnc2c1c(=O)[nH]c(=O)n2Cc1ccccc1, which solubility kinetic is on record?
**A.** Its solubility kinetic is 0.0327 mg/mL (≈ 110 µM).

**Q.** With CN1CCC(N(C)C(=S)NCCc2ccccc2)CC1 as the compound, how does the solubility kinetic read?
**A.** Its solubility kinetic is > 0.0437 mg/mL.

**Q.** With CCC(=O)NC(c1ccccc1)c1c(O)ccc2ccccc12 (stereo not given) as the compound, how does the solubility kinetic read?
**A.** Its solubility kinetic is 0.0009 mg/mL (≈ 2.95 µM).

**Q.** Which solubility kinetic does the source give for Cc1ccc(Nc2nc(=O)c3cccnc3s2)c(Br)c1 here?
**A.** The solubility kinetic was 0.0024 mg/mL (≈ 6.89 µM).

**Q.** With COc1ccc(OC)c(S(=O)(=O)NC2CC2)c1 as the compound, how does the solubility kinetic read?
**A.** The solubility kinetic was > 0.0386 mg/mL.

**Q.** Which solubility kinetic does the source give for O=[N+]([O-])c1ccc(Cl)c(CN2CCN(c3ncccn3)CC2)c1 here?
**A.** The solubility kinetic was 0.0351 mg/mL (≈ 105 µM).

**Q.** Which solubility kinetic does the source give for N#Cc1c(Nc2ccccc2C(F)(F)F)s[nH]c1=O here?
**A.** The solubility kinetic was > 0.0428 mg/mL.

**Q.** Which solubility kinetic does the source give for CC(C)(C)c1cc(CCC(=O)NCC2CCCO2)cc(C(C)(C)C)c1O (stereo not given) here?
**A.** The solubility kinetic was 0.0202 mg/mL (≈ 55.9 µM).

**Q.** With Cc1ccc(C(OCC(O)CN2CCCCC2)c2ccccc2)cc1 (stereo not given) as the compound, how does the solubility kinetic read?
**A.** The solubility kinetic was 0.0402 mg/mL (≈ 118 µM).

**Q.** For COCCNc1nc(N)c([N+](=O)[O-])c(Nc2ccc(F)cc2)n1, which solubility kinetic is on record?
**A.** The solubility kinetic was 0.0009 mg/mL (≈ 2.79 µM).

**Q.** For O=C(O)CC/C(=N\NC(=O)CNC(=O)/C=C/c1ccccc1)c1ccccc1, which solubility kinetic is on record?
**A.** The solubility kinetic was > 0.0569 mg/mL.

**Q.** Which solubility kinetic does the source give for Cc1ccsc1C(=O)C1CCCN(Cc2cnc(N)nc2)C1 (stereo not given) here?
**A.** The solubility kinetic was 0.0378 mg/mL (≈ 119 µM).

**Q.** For O=[N+]([O-])c1ccc(N2CCN(Cc3cccc([N+](=O)[O-])c3)CC2)cc1, which solubility kinetic is on record?
**A.** The solubility kinetic was 0.0073 mg/mL (≈ 21.3 µM).

**Q.** Which solubility kinetic does the source give for O=S(=O)(c1cc(F)ccc1F)N1CCN2CCCC2C1 (stereo not given) here?
**A.** The solubility kinetic was > 0.0454 mg/mL.

**Q.** For COc1cc2[nH]c(C(=O)N(C)Cc3ccccc3)cc2c(OC)c1OC, which solubility kinetic is on record?
**A.** Its solubility kinetic is 0.0357 mg/mL (≈ 101 µM).
